In publication PMC7321251 (Molecules, 2020):

What was measured:
SPHK1 = target: T1, SPHK1 (Homo sapiens, UniProt Q9NYA1); test: Sphingosine kinase 1 activity assay (Adapta screening system); format: biochemical; conditions: 20 μM compound; for SK1 inhibitory effect (in words): compared with PF-543; for inhibition at 20 µM: read-out: SK1 inhibition
T1 construct: purchased Thermo Fisher Scientific

SK2 = target: SK2; set-up: method as in PMID 21940750; conditions: cited from earlier work
[1] = Liver microsomal stability, human (HLM); format: in vitro ADME; conditions: human liver microsomes, NADPH
Procedure: (§1) Microsomal incubations were conducted in triplicate in 0.1 M potassium phosphate buffer (pH 7.4) in a clean 1.5 mL eppendorf tube. […] HLM was added and the mixture was pre-incubated at 37 °C in a shaking incubator at approximately 350 rpm for 5 min under Thermo mixer (Eppendorf., Hamburg, Germany). Reactions were initiated by the addition of 1 mM NADPH and were then quenched by adding 40 µL of ice-cold acetonitrile containing 10 µM chlorproamide (CPP) as an internal standard at 0, 30 min. The incubation mixtures were then centrifuged at 15,000× g for 5 min at 4 °C. A 2 µL aliquot of the supernatant was directly injected into the LC-MS/MS system. The LC-MS/MS system consisted of the Nexera XR HPLC system (Shimadzu Co., Kyoto, Japan) coupled to the TSQ Vantage triple quadrupole mass spectrometer equipped with Xcalibur version 1.1.1 (Thermo Fisher Scientific Inc., Waltham, MA, USA).

[2] = Liver microsomal stability, dog (DLM); format: in vitro ADME; conditions: dog liver microsomes, NADPH
Procedure: [Worded in the source for another species; this species is reported under the same test.] as §1

[3] = Liver microsomal stability, rat (RLM); format: in vitro ADME; conditions: rat liver microsomes, NADPH
Procedure: [Worded in the source for another species; this species is reported under the same test.] as §1

[4] = Liver microsomal stability, mouse (MLM); format: in vitro ADME; conditions: mouse liver microsomes, NADPH
Procedure: [Worded in the source for another species; this species is reported under the same test.] as §1

SPHK2 = target: T2, SPHK2 (Homo sapiens, UniProt Q9NRA0); test: Sphingosine kinase 2 activity assay (Adapta screening system); format: biochemical; conditions: 20 μM compound
T2 construct: purchased Thermo Fisher Scientific
T2 sequence (Q9NRA0 1-654): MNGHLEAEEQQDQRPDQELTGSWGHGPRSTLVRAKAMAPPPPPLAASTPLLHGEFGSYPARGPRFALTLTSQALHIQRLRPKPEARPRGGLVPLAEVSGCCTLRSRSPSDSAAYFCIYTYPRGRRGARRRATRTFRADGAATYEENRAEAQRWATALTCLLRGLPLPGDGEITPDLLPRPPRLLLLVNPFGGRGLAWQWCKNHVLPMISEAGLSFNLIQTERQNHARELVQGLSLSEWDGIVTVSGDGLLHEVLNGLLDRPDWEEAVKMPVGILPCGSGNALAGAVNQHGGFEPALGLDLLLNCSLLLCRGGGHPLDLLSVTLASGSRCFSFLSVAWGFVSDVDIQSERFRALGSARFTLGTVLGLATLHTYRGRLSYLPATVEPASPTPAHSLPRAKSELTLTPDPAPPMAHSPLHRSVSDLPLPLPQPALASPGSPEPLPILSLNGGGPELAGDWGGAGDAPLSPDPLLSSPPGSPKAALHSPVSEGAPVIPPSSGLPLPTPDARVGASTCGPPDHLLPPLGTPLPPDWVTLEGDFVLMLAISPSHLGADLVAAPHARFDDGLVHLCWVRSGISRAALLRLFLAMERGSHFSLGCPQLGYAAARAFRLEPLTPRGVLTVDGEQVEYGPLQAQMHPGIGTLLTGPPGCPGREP
Procedure: […]. The sphingosine kinase 1 activity assay used 0.04–0.16 ng SPHK1, 50 μM sphingosine lipid substrate in 32.5 mM HEPES pH 7.5, 0.005% BRIJ 35, 5 mM MgCl2, 0.5 mM ethylene glycol-bis(β-aminoethyl ether)-N,N,N′,N′-tetraacetic acid (EGTA). The sphingosine kinase 2 activity assay detected 35 - 140 ng SPHK2, 50 μM sphingosine lipid substrate in 32.5 mM HEPES pH 7.5, 0.5 mM EGTA, 1.5 mM MgCl2.

T1 sequence (Q9NYA1 whole entry): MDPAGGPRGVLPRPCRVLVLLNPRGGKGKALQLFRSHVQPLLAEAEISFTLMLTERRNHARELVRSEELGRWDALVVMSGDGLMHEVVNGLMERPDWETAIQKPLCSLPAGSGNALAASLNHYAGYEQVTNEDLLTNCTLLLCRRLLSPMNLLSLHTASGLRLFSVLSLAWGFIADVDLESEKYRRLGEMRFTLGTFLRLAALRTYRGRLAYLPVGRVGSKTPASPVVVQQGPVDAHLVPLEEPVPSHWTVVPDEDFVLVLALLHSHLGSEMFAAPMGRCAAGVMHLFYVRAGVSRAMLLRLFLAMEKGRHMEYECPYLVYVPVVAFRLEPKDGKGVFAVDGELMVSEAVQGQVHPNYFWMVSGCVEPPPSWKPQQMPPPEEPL

Structure (SMILES)	SK1 inhibitory effect (in words) (SPHK1)	inhibition at 20 µM (SPHK1)	further results
O=S(=O)(Cc1cc(O)cc(OCc2ccc(CN3CCC(O)CC3)cc2)c1)c1ccccc1 [compound 10, 1-(4-((3-Hydroxy-5-((phenylsulfonyl)methyl)phenoxy)methyl)benzyl)piperidin-4-ol]	reduced		
CCCCCCCCc1ccc(CC[C@@](N)(CO)COC)cc1 [ROME, (R)-FTY720-OMe]			Ki (SK2): 16 µM
O=S(=O)(Cc1cc(O)cc(OCc2ccc(CN3CCC[C@@H]3CO)cc2)c1)c1ccccc1 [compound 8, (R)-3-((4-((2-(Hydroxymethyl)pyrrolidin-1-yl)methyl)benzyl)oxy)-5-((phenylsulfonyl)methyl)phenol]			SK2 inhibitory effect (in words) (SPHK2): showed an inhibitory effect against SK2 alone
O=S(=O)(Cc1cccc(OCc2ccc(CN3CCC[C@@H]3CO)cc2)c1)c1ccccc1 [compound 2, (R)-(1-(4-((3-((Phenylsulfonyl)methyl)phenoxy)methyl)benzyl)pyrrolidin-2-yl)methanol]		100%	
O=S(=O)(Cc1cccc(OCc2ccc(CN3CCC(O)CC3)cc2)c1)c1ccccc1 [compound 4, 1-(4-((3-((Phenylsulfonyl)methyl)phenoxy)methyl)benzyl)piperidin-4-ol]	reduced		

Second part, led by results:

SK1 inhibitory effect (in words) (SPHK1)	inhibition at 20 µM (SPHK1)	Structure (SMILES)	further results
reduced		O=S(=O)(Cc1cc(F)cc(OCc2ccc(CN3CCC(O)CC3)cc2)c1)c1ccccc1 [compound 7, 1-(4-((3-Fluoro-5-((phenylsulfonyl)methyl)phenoxy)methyl)benzyl)piperidin-4-ol]	
	100%	O=S(=O)(Cc1cc(F)cc(OCc2ccc(CN3CC[C@H](O)C3)cc2)c1)c1ccccc1 [compound 6, (S)-1-(4-((3-fluoro-5-((phenylsulfonyl)methyl)phenoxy)methyl)benzyl)pyrrolidin-3-ol]	
	100%	O=S(=O)(Cc1cc(F)cc(OCc2ccc(CN3CCC[C@@H]3CO)cc2)c1)c1ccccc1 [compound 5, (R)-(1-(4-((3-Fluoro-5-((phenylsulfonyl)methyl)phenoxy)methyl)benzyl)pyrrolidin-2-yl)methanol]	HLM microsomal stability (% remaining during 30 min) [1]: 7.6 % remaining; DLM microsomal stability (% remaining during 30 min) [2]: 5.5 % remaining; RLM microsomal stability (% remaining during 30 min) [3]: 6.8 % remaining; MLM microsomal stability (% remaining during 30 min) [4]: 9.8 % remaining
	100%	O=S(=O)(Cc1cccc(OCc2ccc(CN3CC[C@H](O)C3)cc2)c1)c1ccccc1 [compound 3, (S)-1-(4-((3-((Phenylsulfonyl)methyl)phenoxy)methyl)benzyl)pyrrolidin-3-ol]	
